Assay [1] can be described thus: A cytotoxicity screen of small molecule inhibitors of the PhoP region in Salmonella typhi identified in the primary screen. [Related pubchem assays: 1850, 1864, 1985 ]. In kind it is functional.
The test system of assay [2] is HEK293. In words: Fluorescence-based counterscreen for potentiators or agonists of NPY-Y2: cell-based high-throughput dose response assay to identify inhibitors of cyclic nucleotide gated ion channel (CNGC) activity. In this assay, the parental HEK293 cell line transfected with a cyclic-nucleotide gated ion channel (CNGC)-based cAMP sensor is used to measure inhibition of isoproterenol-induced CNGC activity by test compound. It is filed as functional. As to conditions: Homo sapiens. (In general: The purpose of a counterscreen is to sort out artefacts and off-target activity.);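 note: stimulus is 1 µM isoproterenol at EC100 plus PDE inhibitor Ro 20-1724 at 25 µM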

The test system of assay [3] is Streptococcus sp. 'group A'. In words: Streptococcus pyogenes SK(-)GAS viability under kanamycin – luminescence, BacTiterGlo, confirmation, counter-screen for streptokinase expression inhibitor project, dose response (AID 1900). It is filed as functional, organism-based.
In assay [4] the target is T1, Neuropeptide Y receptor type 2 (Homo sapiens, UniProt P49146).
T1 sequence (P49146 whole entry): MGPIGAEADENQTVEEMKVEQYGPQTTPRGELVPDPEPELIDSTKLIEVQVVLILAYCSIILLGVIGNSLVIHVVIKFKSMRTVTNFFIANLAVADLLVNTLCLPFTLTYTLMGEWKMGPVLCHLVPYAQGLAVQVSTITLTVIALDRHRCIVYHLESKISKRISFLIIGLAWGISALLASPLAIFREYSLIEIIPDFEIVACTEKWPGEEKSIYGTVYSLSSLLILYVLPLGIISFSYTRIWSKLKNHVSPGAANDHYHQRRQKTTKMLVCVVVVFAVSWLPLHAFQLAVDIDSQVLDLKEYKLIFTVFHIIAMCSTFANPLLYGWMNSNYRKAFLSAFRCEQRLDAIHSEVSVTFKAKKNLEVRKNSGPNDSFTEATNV
As to the kind of experiment: Fluorescence-based cell-based high-throughput dose response assay for agonists of NPY-Y2. [Related pubchem assays: 1703 (Screening assay (CNGC inhibitors).), 1359 (Screening assay (NPY-Y2 potentiators or agonists).), 1304 (Screening assay (NPY-Y1 potentiators or agonists).), 1710 (Screening assay (NPY-Y2 agonists).), 1791 (Summary AID.)]. In kind it is functional.

Assay [5] addresses T2, Streptokinase A (Streptococcus pyogenes serotype M1, UniProt P10520).
T2 sequence (P10520 whole entry): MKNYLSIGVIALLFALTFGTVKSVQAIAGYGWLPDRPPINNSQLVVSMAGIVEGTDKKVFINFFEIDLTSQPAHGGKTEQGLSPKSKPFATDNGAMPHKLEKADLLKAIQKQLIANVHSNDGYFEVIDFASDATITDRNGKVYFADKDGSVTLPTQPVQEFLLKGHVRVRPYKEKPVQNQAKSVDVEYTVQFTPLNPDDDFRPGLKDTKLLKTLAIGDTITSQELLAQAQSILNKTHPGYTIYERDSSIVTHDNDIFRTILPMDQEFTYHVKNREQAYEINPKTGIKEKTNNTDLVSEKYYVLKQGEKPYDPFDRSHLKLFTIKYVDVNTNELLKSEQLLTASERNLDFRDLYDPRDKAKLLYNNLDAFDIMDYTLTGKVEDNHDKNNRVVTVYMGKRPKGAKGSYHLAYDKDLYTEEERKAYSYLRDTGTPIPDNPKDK
As to the kind of experiment: viability-normalized secreted streptokinase activity reduction – plasminogen activation absorbance, OD405, dose response (AID 1914).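 Note: secreted streptokinase activity via plasminogen activation per viability signal from cell pellet.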 In kind it is functional, Streptococcus pyogenes M1 GAS.

Assay [6] addresses T3, Neuropeptide Y receptor type 1 (Homo sapiens, UniProt P25929).
T3 sequence (P25929 whole entry): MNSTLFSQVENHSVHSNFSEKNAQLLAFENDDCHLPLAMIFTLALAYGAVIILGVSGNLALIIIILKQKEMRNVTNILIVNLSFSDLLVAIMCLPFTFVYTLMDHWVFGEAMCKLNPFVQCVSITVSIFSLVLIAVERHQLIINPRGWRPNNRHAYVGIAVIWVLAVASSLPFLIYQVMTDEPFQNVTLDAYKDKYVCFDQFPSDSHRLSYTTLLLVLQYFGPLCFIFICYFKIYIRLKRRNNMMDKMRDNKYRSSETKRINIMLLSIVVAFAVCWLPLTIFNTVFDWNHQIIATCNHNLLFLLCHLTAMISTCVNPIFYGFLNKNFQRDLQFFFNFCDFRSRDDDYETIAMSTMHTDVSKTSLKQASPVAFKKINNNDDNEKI
In words: Fluorescence-based counterscreen for agonists of NPY-Y2: cell-based high-throughput dose response assay for agonists of NPY-Y1. In kind it is functional.

For assay [7], the system named is Streptococcus. As to the kind of experiment: GAS UMAA2166 growth inhibition – luminescence, BacTiterGlo, counter-screen for streptokinase expression inhibitor project, dose response (AID 1915).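 Note: potency for reduction of bacterial viability or growth.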 It is filed as functional, organism-based.
The target in assay [8] is T4, Fatty acid synthase (Homo sapiens, UniProt P49327). In words: inhibition of human FAS-TE enzyme activity – biochemical, endpoint fluorescence intensity, uHTS hits, dose response (AID 624327).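 Note: fluorescence from hydrolysis of an O-methyl fluorescein acyl ester substrate by the enzyme.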 In kind it is functional.
T4 sequence (P49327 whole entry): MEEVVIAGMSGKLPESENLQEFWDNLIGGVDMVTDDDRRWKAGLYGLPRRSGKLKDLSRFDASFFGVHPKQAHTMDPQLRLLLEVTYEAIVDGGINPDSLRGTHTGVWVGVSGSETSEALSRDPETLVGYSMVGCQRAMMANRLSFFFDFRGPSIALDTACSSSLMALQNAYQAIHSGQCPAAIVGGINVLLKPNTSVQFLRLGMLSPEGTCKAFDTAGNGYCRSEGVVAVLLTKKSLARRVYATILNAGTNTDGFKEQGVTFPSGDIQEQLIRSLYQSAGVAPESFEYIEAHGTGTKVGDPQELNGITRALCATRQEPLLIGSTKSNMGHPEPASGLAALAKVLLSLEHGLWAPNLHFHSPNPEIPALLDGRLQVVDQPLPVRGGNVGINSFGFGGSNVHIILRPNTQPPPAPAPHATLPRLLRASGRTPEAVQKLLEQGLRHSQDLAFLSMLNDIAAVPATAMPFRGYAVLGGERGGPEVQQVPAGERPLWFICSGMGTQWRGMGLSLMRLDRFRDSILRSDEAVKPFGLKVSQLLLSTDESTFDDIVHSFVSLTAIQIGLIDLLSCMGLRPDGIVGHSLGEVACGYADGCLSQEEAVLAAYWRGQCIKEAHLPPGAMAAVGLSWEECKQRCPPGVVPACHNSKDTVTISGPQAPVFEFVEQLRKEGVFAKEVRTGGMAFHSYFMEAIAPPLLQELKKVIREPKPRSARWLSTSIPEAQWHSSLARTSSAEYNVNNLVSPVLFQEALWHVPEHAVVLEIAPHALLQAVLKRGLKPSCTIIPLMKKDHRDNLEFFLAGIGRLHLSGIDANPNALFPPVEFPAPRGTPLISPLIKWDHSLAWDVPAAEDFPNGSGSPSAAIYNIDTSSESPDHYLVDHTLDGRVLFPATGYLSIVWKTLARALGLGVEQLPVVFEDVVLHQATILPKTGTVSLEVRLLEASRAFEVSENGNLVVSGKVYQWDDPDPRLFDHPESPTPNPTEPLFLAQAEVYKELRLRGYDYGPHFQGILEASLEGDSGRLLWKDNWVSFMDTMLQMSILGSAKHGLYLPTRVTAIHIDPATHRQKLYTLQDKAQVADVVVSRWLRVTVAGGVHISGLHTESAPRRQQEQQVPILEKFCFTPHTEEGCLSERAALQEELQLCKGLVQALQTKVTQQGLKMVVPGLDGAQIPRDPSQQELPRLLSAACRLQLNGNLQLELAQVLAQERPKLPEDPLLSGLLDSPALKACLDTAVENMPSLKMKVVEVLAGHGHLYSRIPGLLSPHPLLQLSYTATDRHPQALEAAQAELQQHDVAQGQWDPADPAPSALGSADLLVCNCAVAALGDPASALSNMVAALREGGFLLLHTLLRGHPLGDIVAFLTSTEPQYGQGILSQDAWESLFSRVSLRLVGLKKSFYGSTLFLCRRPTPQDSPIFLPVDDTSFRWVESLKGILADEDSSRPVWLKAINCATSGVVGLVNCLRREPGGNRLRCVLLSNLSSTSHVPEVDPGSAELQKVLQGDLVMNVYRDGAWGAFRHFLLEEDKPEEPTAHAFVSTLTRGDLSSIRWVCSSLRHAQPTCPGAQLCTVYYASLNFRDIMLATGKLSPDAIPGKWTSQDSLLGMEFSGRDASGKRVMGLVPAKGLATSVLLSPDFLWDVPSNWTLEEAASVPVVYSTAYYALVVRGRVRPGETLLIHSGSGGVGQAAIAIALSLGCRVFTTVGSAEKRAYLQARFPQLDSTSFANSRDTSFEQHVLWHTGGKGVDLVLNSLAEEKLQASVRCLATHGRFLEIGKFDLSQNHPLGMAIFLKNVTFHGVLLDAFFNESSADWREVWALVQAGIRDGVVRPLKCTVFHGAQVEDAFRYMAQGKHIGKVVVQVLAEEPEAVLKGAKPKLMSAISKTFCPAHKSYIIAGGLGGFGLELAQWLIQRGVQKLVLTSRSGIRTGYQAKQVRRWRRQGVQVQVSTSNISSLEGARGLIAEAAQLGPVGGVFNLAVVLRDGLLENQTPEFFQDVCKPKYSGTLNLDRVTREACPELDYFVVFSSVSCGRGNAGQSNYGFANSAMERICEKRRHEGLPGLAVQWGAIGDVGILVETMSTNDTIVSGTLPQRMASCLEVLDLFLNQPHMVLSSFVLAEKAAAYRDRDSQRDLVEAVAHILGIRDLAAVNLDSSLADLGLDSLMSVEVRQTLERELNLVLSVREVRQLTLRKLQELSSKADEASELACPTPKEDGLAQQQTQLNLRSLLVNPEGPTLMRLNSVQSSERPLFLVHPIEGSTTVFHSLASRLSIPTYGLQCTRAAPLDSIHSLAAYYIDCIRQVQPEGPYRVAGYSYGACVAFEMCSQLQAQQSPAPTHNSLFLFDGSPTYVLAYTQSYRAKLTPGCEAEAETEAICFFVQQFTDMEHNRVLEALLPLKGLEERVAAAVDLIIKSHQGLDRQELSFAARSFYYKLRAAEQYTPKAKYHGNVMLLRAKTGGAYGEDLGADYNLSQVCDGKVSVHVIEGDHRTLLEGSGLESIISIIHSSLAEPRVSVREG
For assay [9], the target named is T4, Fatty acid synthase. In words: inhibition of human FAS-TE enzyme activity – biochemical, kinetic fluorescence intensity, dose response (AID 624326).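 Note: rate of fluorescence rise from hydrolysis of a fluorogenic O-methyl fluorescein ester substrate.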 It is filed as functional.
The target of assay [10] is Paired box protein Pax-8 (Homo sapiens, UniProt Q06710). As to the kind of experiment: PAX8 transcriptional activity inhibition in RMG-I – RMG-I cells, luciferase, cherry-pick, dose response (AID 687027).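 Note: luciferase reporter driven by Pax8 target thyroperoxidase promoter measured by SteadyGlo luminescence.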 In kind it is functional, cell-based.
Sequence of Paired box protein Pax-8 (Q06710 whole entry): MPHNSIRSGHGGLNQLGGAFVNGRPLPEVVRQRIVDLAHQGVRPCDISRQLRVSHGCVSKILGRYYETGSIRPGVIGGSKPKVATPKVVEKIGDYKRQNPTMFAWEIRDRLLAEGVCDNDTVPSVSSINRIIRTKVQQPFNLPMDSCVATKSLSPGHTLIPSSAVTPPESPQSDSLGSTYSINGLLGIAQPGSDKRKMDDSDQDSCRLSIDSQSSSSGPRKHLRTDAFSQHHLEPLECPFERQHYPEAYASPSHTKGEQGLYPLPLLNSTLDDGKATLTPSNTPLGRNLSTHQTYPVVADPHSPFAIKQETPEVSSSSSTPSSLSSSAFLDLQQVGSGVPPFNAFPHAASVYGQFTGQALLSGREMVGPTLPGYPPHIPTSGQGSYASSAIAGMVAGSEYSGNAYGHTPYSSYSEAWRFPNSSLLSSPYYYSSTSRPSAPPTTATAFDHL
The nature of assay [11]: antiviral protection against BTV-induced cell death – arbovirus, BSR cells, confirmation (AID 1250).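 Note: protection from viral cytopathic effect measured as cell viability by ATP luminescence.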 It is filed as functional.
The subject of assay [12] is Vero. In words: viability of Vero cells under compound – cytotoxicity control for flavivirus capping enzyme inhibitors (AID 588742). In kind it is functional. As to conditions: Chlorocebus sabaeus.
Assay [13] has as its target Mothers against decapentaplegic homolog 3 (Homo sapiens, UniProt P84022). As to the kind of experiment: blockers of Smad3 complex formation in lysate – cell lysate, secondary confirmation, chemiluminescent ELISA, HEK293 lysate, dose response (AID 1058). It is filed as functional. Background: An ELISA detects its analyte on a solid surface through an enzyme-linked reagent.

Assay [14] addresses T3, Neuropeptide Y receptor type 1. It is filed as functional.
Assay [15] concerns the target T1, Neuropeptide Y receptor type 2. In kind it is functional, cell-based.
Assay [16] addresses Epstein-Barr nuclear antigen 1 (Epstein-Barr virus (strain B95-8) (HHV-4) (Human herpesvirus 4), UniProt P03211). In words: inhibition of EBV nuclear antigen 1 DNA binding – biochemical, fluorescence polarization, 1536-well, dose response (AID 2381).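 Note: fluorescence polarization of a Cy5 DNA probe bound by EBNA-1 protein.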 Also noted: species or system human gammaherpesvirus 4. Background: In fluorescence polarisation assays a small probe gives low polarisation when free and higher when bound to something large.

For assay [17], the target named is Lytic switch protein BZLF1 (Epstein-Barr virus (strain B95-8) (HHV-4) (Human herpesvirus 4), UniProt P03206). As to the kind of experiment: inhibition of BZLF1 ZTA DNA binding – biochemical, fluorescence polarization, Epstein-Barr virus, 1536-well, counter-screen for EBNA-1 inhibitor project, dose response (AID 2377).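 Note: fluorescence polarization of Cy5-labelled ZRE DNA probe bound by purified Zta.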 Also noted: species or system human gammaherpesvirus 4.
Sequence of Lytic switch protein BZLF1 (P03206 whole entry): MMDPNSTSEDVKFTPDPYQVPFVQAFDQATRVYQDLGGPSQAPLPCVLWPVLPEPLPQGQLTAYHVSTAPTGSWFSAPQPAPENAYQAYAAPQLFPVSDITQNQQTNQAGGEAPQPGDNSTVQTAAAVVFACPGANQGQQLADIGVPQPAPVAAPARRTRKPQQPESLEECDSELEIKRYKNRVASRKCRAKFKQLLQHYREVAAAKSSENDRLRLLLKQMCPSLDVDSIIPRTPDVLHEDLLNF

The text below walks through data of ChEMBL document CHEMBL1201862, “PubChem BioAssay data set” (2004).

By EC50 is commonly meant the concentration giving half of the maximal effect. As a reminder, the IC50 is the concentration that inhibits the measured activity by half. For orientation: AC50 means the concentration giving half of the maximal activity seen. In general, CC50 refers to the concentration at which the toxic effect on the cells reaches its halfway point.

Activity calls are given as the source filed them.

Sequence of Epstein-Barr nuclear antigen 1 (P03211 whole entry): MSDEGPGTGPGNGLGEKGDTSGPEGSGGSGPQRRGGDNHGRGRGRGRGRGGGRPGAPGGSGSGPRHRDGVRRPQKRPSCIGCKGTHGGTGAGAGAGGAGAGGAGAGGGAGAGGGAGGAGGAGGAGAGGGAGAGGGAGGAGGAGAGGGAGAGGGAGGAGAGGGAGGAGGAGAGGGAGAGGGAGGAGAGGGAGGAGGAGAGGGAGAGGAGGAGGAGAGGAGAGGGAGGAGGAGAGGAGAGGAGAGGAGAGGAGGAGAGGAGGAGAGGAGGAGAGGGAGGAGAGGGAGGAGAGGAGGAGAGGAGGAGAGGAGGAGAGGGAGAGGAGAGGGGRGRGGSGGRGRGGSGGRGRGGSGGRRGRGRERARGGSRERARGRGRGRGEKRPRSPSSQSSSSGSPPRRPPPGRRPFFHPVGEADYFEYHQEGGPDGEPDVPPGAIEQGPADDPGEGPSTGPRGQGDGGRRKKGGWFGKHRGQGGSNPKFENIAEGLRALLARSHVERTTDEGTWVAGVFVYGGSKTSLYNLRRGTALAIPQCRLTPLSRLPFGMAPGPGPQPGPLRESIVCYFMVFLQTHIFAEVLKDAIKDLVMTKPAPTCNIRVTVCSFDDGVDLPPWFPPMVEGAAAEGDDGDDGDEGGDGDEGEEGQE
Sequence of Mothers against decapentaplegic homolog 3 (P84022 whole entry): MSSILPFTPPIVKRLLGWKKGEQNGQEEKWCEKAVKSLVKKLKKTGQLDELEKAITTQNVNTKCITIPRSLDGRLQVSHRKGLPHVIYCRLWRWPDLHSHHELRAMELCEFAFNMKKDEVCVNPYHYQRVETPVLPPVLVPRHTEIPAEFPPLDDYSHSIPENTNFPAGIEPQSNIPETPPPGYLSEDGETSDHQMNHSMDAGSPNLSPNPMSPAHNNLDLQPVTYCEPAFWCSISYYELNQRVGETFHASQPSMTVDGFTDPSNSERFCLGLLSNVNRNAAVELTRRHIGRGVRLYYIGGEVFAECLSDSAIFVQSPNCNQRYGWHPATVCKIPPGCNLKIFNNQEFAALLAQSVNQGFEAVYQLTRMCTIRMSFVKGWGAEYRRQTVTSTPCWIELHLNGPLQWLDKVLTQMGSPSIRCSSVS

As to `COc1cc(C)c(Cl)cc1S(=O)(=O)n1cnc(C)c1`, in assay [1], the EC50 is > 50 µM (active).

Take `C=CCN1C(=O)/C(=C/c2ccc(OC(C)=O)c(OCC)c2[N+](=O)[O-])SC1=S`: the EC50 in assay [2] is > 11.8 µM (not active); in assay [3] it was 1.32 µM (active); in assay [4], 18.4 µM (not active); in [5] it was > 150 µM (not active); in [6], 14.8 µM (not active); in assay [7], 2.63 µM (active). The IC50 is 5.92 µM (active) in assay [8] and 2.87 µM (active) in assay [9]. Also, the AC50 in [10] is 5.91 µM (active).

With `CCOc1ccc(CNc2ccc3c(c2)nc(C)n3C)cc1`, in assay [11], the IC50 was 26.6 µM (active). In addition, in assay [12], the CC50 was > 40 µM (active).

Consider `COc1ccc(C(c2cc3c(cc2O)OCO3)N2CCN(C(c3ccc(OC)cc3)c3cc4c(cc3O)OCO4)CC2)cc1` (configuration not stated), for which, in [13], the IC50 is given as 36.1 µM (not active).

`N=c1n(Cc2ccc(Cl)cc2)c2ccccc2n1CC(O)c1ccco1` (configuration not stated): the IC50 in [14] and in [15] was > 35 µM (not active) throughout.

In the case of `N#C/C(=C\c1cn(Cc2ccccc2F)c2ccccc12)C(=O)NCc1ccco1`, the values for the IC50 in assay [16] and in assay [17] were 6.53 µM (active) and > 111 µM (not active), respectively.
